Source: the supplement of paper PMC10307832

How the values were obtained:
Assay in all cases: relative viability (nuclei count vs DMSO), 5 days (fraction); higher = more cells survive
[1] = compound: C1CNCCC1C2=CC(=NN2)C3=CC=NC=C3 + CS(=O)(=O)N1CCN(Cc2cc3nc(-c4cccc5[nH]ncc45)nc(N4CCOCC4)c3s2)CC1 [Pictilisib] (partner 1 µM)
How it was run: (§1)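 After 5 days of treatment, lung cancer cells in 1536-well plates were fixed and stained in a single step (final 0.05% Triton X-100, 1% formaldehyde, 1 ug/ml Hoechst) and their nuclei counted on 4× images. Treatment had been applied by pin tool the day after seeding as one drug alone or as a fixed anchor-drug dose with five library-drug doses (not always all listed) in √10 steps. Relative viability is the nuclei count of treated wells divided by that of vehicle wells, and values are medians of duplicate plates.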

[2] = compound: O[C@H]1CC[C@H](Nc2ncc3nc(Nc4c(F)cc(F)cc4F)n([C@H]4CCOC4)c3n2)CC1 [Tanzisertib] + CC(=O)Nc1cccc(-n2c(=O)n(C3CC3)c(=O)c3c(Nc4ccc(I)cc4F)n(C)c(=O)c(C)c32)c1 [Trametinib] (partner 0.02 µM)
How it was run: as §1

[3] = compound: O[C@H]1CC[C@H](Nc2ncc3nc(Nc4c(F)cc(F)cc4F)n([C@H]4CCOC4)c3n2)CC1 [Tanzisertib] + NC(=O)Nc1cc(-c2cccc(F)c2)sc1C(=O)N[C@H]1CCCNC1 [AZD7762] (partner 0.2 µM)
How it was run: as §1

[4] = compound: O[C@H]1CC[C@H](Nc2ncc3nc(Nc4c(F)cc(F)cc4F)n([C@H]4CCOC4)c3n2)CC1 [Tanzisertib] + CC(=O)c1c(C)c2cnc(Nc3ccc(N4CCNCC4)cn3)nc2n(C2CCCC2)c1=O [Palbociclib] (partner 0.5 µM)
How it was run: as §1

Cell Line	relative viability ([1]; first compound 0.08 µM)	relative viability ([1]; first compound 0.8 µM)	relative viability ([1]; first compound 2.53 µM)	relative viability ([1]; first compound 8 µM)	relative viability ([2]; first compound 0.08 µM)	relative viability ([2]; first compound 0.253 µM)	relative viability ([2]; first compound 0.8 µM)	relative viability ([2]; first compound 2.53 µM)	relative viability ([2]; first compound 8 µM)	relative viability ([3]; first compound 0.08 µM)	relative viability ([3]; first compound 0.253 µM)	relative viability ([3]; first compound 0.8 µM)	relative viability ([3]; first compound 2.53 µM)	relative viability ([3]; first compound 8 µM)	relative viability ([4]; first compound 0.08 µM)	relative viability ([4]; first compound 0.253 µM)	relative viability ([4]; first compound 0.8 µM)	relative viability ([4]; first compound 2.53 µM)	relative viability ([4]; first compound 8 µM)
LK-2	0.452	0.746	0.572	0.623	0.916	0.76	0.816	0.694	0.866	0.41	0.455	0.421	0.32	0.346	0.526	0.618	0.798	0.659	0.749
LOU-NH91	0.545	0.521	0.522	0.49	0.824	0.811	0.773	0.756	0.71	0.781	0.782	0.806	0.746	0.676	0.584	0.558	0.532	0.556	0.414
LU99A	0.321	0.366	0.316	0.307	0.632	0.573	0.591	0.531	0.559	0.299	0.42	0.431	0.322	0.407	0.405	0.377	0.378	0.399	0.389
LXF-289	0.776	0.845	0.823	0.829	0.694	0.691	0.748	0.663	0.82	1.21	1.09	1.19	1.1	1.12	0.596	0.592	0.647	0.574	0.65
NCI-H23	0.447	0.533	0.648	0.601	0.389	0.357	0.418	0.367	0.419	0.224	0.245	0.236	0.317	0.214	0.479	0.53	0.512	0.493	0.514
NCI-H322M	0.423	0.482	0.523	0.479	0.464	0.482	0.491	0.448	0.544	0.567	0.547	0.547	0.527	0.492	0.475	0.459	0.475	0.472	0.534
NCI-H358	0.323	0.376	0.357	0.422	0.141	0.134	0.151	0.155	0.133	0.468	0.494	0.695	0.453	0.387	0.129	0.134	0.127	0.127	0.148
NCI-H441	0.462	0.455	0.428	0.491	0.567	0.452	0.456	0.429	0.388	1.21	0.989	1.07	1.11	1.08	0.236	0.224	0.241	0.194	0.154
NCI-H460	0.423	0.289	0.436	0.385	0.177	0.11	0.2	0.139	0.0888	0.661	0.627	0.591	0.63	0.628	0.199	0.193	0.113	0.161	0.13
NCI-H647	0.388	–	0.427	0.381	0.702	0.47	0.524	0.528	0.418	0.675	0.549	0.546	0.534	0.18	0.364	0.506	0.381	0.427	0.439
NCI-H650	0.897	0.992	0.939	0.904	0.975	0.946	1.06	0.983	0.874	1.03	1.32	1.01	1.3	0.489	0.341	0.342	0.302	0.33	0.325
NCI-H727	0.373	0.407	0.505	0.575	0.38	0.391	0.387	0.347	0.352	0.59	0.652	0.524	0.544	0.599	0.74	0.673	0.614	0.676	0.626
NCI-H838	0.439	0.491	0.471	0.461	0.705	0.566	0.506	0.529	0.49	0.964	0.962	0.889	0.909	0.972	0.233	0.225	0.219	0.228	0.198
NCI-H1355	0.501	0.52	0.517	0.423	0.455	0.433	0.47	0.417	0.464	0.847	0.822	0.813	0.71	0.708	0.435	0.398	0.4	0.438	0.382
NCI-H1395	0.837	0.535	0.677	0.785	1.03	0.932	0.989	0.991	1.05	0.439	0.399	0.382	0.394	0.425	0.71	0.574	0.607	0.618	0.632
NCI-H1437	0.443	0.485	0.45	0.528	0.588	0.481	0.512	0.558	0.43	1.15	1.15	1.12	1.12	1.12	0.333	0.291	0.315	0.32	0.262
NCI-H1651	0.637	0.711	0.601	0.664	0.851	0.83	0.775	0.832	0.85	0.507	0.464	0.43	0.426	0.378	0.552	0.537	0.508	0.502	0.519
NCI-H1666	0.463	0.335	0.641	0.463	0.842	0.839	0.968	0.862	0.908	0.939	0.905	0.848	0.9	0.684	0.675	0.729	0.65	0.688	0.639
NCI-H1734	0.427	0.451	0.469	0.452	0.652	0.669	0.709	0.681	0.721	0.596	0.532	0.558	0.534	0.526	0.361	0.335	0.321	0.343	0.354
NCI-H1755	0.423	0.412	0.419	0.372	0.791	0.831	0.779	0.697	0.719	0.462	0.474	0.441	0.399	0.384	0.434	0.453	0.433	0.44	0.439
NCI-H1792	0.223	0.246	0.345	0.304	0.501	0.455	0.35	0.413	0.244	0.842	0.693	0.742	0.697	0.523	0.7	0.66	0.654	0.64	0.573
NCI-H1793	0.294	0.357	0.422	0.358	0.65	0.419	0.475	0.398	0.542	0.643	0.574	0.462	0.406	0.397	0.306	0.326	0.347	0.293	0.303
NCI-H1915	1.03	0.885	0.965	0.906	0.31	0.306	0.296	0.268	0.258	0.716	0.675	0.709	0.714	0.653	0.58	0.514	0.55	0.506	0.476
NCI-H1944	0.377	0.341	0.334	0.341	0.455	0.422	0.435	0.343	0.403	0.526	0.507	0.52	0.422	0.458	0.322	0.343	0.324	0.339	0.295
NCI-H1975	0.325	0.305	0.331	0.307	0.396	0.422	0.345	0.349	0.341	0.697	0.794	0.752	0.653	0.54	0.735	0.575	0.515	0.562	0.549
NCI-H1993	0.802	0.806	0.933	0.623	0.638	0.428	0.55	0.499	0.522	1.21	0.867	0.731	0.68	0.823	0.652	0.531	0.611	0.617	0.595
NCI-H2085	0.406	–	0.448	0.546	–	0.604	0.436	0.556	0.491	–	0.974	1.02	0.981	1.02	–	0.456	0.454	0.455	0.505
NCI-H2087	0.855	1.03	1.1	1.09	0.256	0.171	0.21	0.181	0.182	1.48	1.07	1.33	1.41	1.26	0.256	0.308	0.254	0.235	0.255
